Reference: publication PMC10674866, “Electrosprayed Nanoparticles Containing Mangiferin-Rich Extract from Mango Leaves for Cosmeceutical Application” (Nanomaterials, 2023)
≈ marks a conversion by molar mass, not a printed value.

Experiments:
Assay type in all cases: biochemical
[1] = molecular target: T1, collagenase from Histidium histolyticum; assay: fluorescence assay of collagen hydrolysis ([…],4-DHPAA / periodate); details: collagen substrate; borate buffer pH 7.5; 5 mM CaCl2; 37 °C
T1 construct: gene colG

tyrosinase from mushroom = molecular target: T2, tyrosinase from mushroom; assay: absorbance at […] nm; details: L-tyrosine substrate; 20 mM phosphate pH 6.8; room temperature
T2 construct: gene PPO1

[2] = molecular target: T3, hyaluronidase from bovine (Bos taurus, UniProt Q2YDK3); assay: turbidity with acidic albumin, absorbance at […] nm; details: read-out: % inhibition at 40.0 μg/mL
T3 construct: gene SPAM1; commercial native enzyme (Sigma-Aldrich)
T3 sequence (Q2YDK3 36-553): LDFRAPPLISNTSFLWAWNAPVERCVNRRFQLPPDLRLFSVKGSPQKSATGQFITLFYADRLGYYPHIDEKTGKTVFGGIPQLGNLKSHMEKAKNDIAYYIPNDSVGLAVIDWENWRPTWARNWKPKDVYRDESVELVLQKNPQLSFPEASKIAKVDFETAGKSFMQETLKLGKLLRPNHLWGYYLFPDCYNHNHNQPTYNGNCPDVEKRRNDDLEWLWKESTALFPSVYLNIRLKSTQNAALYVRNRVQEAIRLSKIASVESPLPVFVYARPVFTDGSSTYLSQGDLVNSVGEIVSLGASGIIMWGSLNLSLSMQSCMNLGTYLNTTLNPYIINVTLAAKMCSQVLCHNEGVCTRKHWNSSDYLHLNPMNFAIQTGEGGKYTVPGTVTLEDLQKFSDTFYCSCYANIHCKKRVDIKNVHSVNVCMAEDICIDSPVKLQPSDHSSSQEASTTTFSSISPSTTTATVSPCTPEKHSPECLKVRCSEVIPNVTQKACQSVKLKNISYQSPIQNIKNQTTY

O=C1O[C@H]([C@@H](O)CO)C(O)=C1O [ascorbic acid]
IC50 [1]: 107.84 ± 0.001 µg/mL (≈ 612 µM)
IC50 (tyrosinase from mushroom): 69.8 ± 0.018 µg/mL (≈ 396 µM)

O=c1c2cc(O)c(O)cc2oc2cc(O)c([C@@H]3O[C@H](CO)[C@@H](O)[C@H](O)[C@H]3O)c(O)c12 [mangiferin]
IC50 [1]: 30.06 ± 0.001 µg/mL (≈ 71.2 µM)
inhibition at 40 µg/mL [2]: 1.72 ± 1.13%
